Test results from PubChem BioAssay AID2060511 (Molecular Pharmacology Branch, DTP, NCI, 2025).

Test system: 422866-222-R5-J1-PDC spheroids with HUVEC/MSC, viability
Assay: Anticancer human tumor 422866-222-R5-J1-PDC patient-derived pancreatic adenocarcinoma cell line growth inhibition [GQUAD]
Conditions: for IC50: curve of first compound; for viability, T/C: stronger effect = lower value
Excerpt: DNA G-quadruplex Stabilizer Agents in Combinations in Complex Spheroids
A high-throughput screen of multi-cell type tumor spheroids was designed to identify active combinations of DNA G-quadruplex stabilizer agents and targeted small molecules. Complex spheroids include a stromal component modeled by human endothelial cells (HUVEC) and fibroblasts modeled by human mesenchymal stem cells (MSCs). The concentration ranges selected for each drug and investigational agent were based upon clinically achievable concentrations if the clinical Cmax of the agent was known.
Compounds. The drugs and investigational agents: pidnarulex (CX-5461; NSC782164), APTO-253 (NSC789042), BRACO-19 (NSC847499), peposertib (NSC802822), ceralasertib (NSC780249), elimusertib (NSC800525), camonsertib (NSC841442), AZD-1390 (NSC803789), olaparib (NSC753686), talazoparib (NSC767125), ART-558 (NSC835418), sotorasib (NSC818433), MRTX-1133 (NSC836407), SN-38 (NSC673596), topotecan (NSC609699), etoposide (NSC141540), doxorubicin (NSC123127), gemcitabine (NSC613327), 5-fluorouracil (NSC19893), paclitaxel (NSC125973), vemurafenib (NSC761431), panobinostat (NSC761190), R-306465 (JNJ-16241199; NSC773264), adavosertib (NSC754352), TP-3654 (NSC805149), carboplatin (NSC241240), KSQ-4279 (NSC840948), and staurosporine (NSC755774) were obtained from the National Cancer Institute (NCI) Developmental Therapeutics Program Chemical Repository (34). The FDA-approved anticancer drug set is available from the NCI Developmental Therapeutics Program. […] The stock solutions were prepared in dimethyl sulfoxide (DMSO, Sigma-Aldrich, St. Louis, MO, cat. D2650) at 800-fold the tested concentration and stored at -70 degrees C prior to their use. All drugs and investigational agents were tested over a range starting from a high concentration at or near the clinical Cmax and decreasing in half-log increments. If the clinical Cmax for an agent had not been determined, the highest concentration tested was 10 microM.
2.3 Cell Culture. All cells were maintained in an incubator at 37 degrees C and 5% CO2 with 95% humidity. The PDC lines were cultured according to standard operating procedures established by the NCI PDMR. All PDCs were thawed and cultured in Matrigel-coated flasks prepared with a working solution of 1X Ham's F-12 nutrient mix, without supplementation (Invitrogen, cat. 11765054), 100 U/mL penicillin-streptomycin (Invitrogen, cat. 15140122), and 2.5% Matrigel (Corning Inc., cat. 354248) for the first three passages. The 857933-349-R-J2-PDC line was cultured in 6C/Colon 1B media, which includes advanced DMEM/F-12 (Thermo Fisher Scientific, cat. 12634028), 10 mM HEPES (Thermo Fisher Scientific, cat. 15630080), 1X GlutaMAX supplement (Thermo Fisher Scientific, cat. 35050061), 0.1 mg/mL primocin (InvivoGen, cat. ant-pm-2), 10% defined fetal bovine serum, heat inactivated (HyClone Laboratories Inc., cat. SH30070.03HI), 50% L-WRN conditioned media (ATCC, cat. CRL-3276), 1.25 mM N-Acetyl-L-cysteine (Sigma-Aldrich, cat. A9165), 10 mM nicotinamide (Sigma-Aldrich, cat. N0636), 1X B-27 supplement (Thermo Fisher Scientific, cat. 17504044), 1X N-2 supplement (Thermo Fisher Scientific, cat. 17502048), 10 microM Y-27632 dihydrochloride (Tocris Bioscience, cat. 1254), and 50 ng/mL human EGF recombinant protein (Thermo Fisher Scientific, cat. PHG0311). The 485176-168-R4-J1-PDC line was cultured in Panc media, which includes all 6C/Colon 1B media components plus 100 ng/mL human FGF-10 (Thermo Fisher Scientific, cat. 100-26), 500 nM SB-431542 (Selleckchem, cat. S1067), and gastrin (Tocris, cat. 3006).
[…]

[1] = second compound 0.0316 µM, first compound 0.0316 µM
[2] = second compound 0.0316 µM, first compound 0.1 µM
[3] = second compound 0.0316 µM, first compound 0.316 µM
[4] = second compound 0.0316 µM, first compound 1 µM
[5] = second compound 0.0316 µM, first compound 3.16 µM
[6] = second compound 0.0316 µM, first compound 10 µM
[7] = second compound 0.1 µM, first compound 0.0316 µM
[8] = second compound 0.1 µM, first compound 0.1 µM
[9] = second compound 0.1 µM, first compound 0.316 µM
[10] = second compound 0.1 µM, first compound 1 µM
[11] = second compound 0.1 µM, first compound 3.16 µM
[12] = second compound 0.1 µM, first compound 10 µM
[13] = second compound 0.316 µM, first compound 0.0316 µM
[14] = second compound 0.316 µM, first compound 0.1 µM
[15] = second compound 0.316 µM, first compound 0.316 µM
[16] = second compound 0.316 µM, first compound 1 µM
[17] = second compound 0.316 µM, first compound 3.16 µM
[18] = second compound 0.316 µM, first compound 10 µM
[19] = second compound 1 µM, first compound 0.0316 µM
[20] = second compound 1 µM, first compound 0.1 µM
[21] = second compound 1 µM, first compound 0.316 µM
[22] = second compound 1 µM, first compound 1 µM
[23] = second compound 1 µM, first compound 3.16 µM
[24] = second compound 1 µM, first compound 10 µM
[25] = second compound 3.16 µM, first compound 0.0316 µM
[26] = second compound 3.16 µM, first compound 0.1 µM
[27] = second compound 3.16 µM, first compound 0.316 µM
[28] = second compound 3.16 µM, first compound 1 µM
[29] = second compound 3.16 µM, first compound 3.16 µM
[30] = second compound 3.16 µM, first compound 10 µM
[31] = second compound 10 µM, first compound 0.0316 µM
[32] = second compound 10 µM, first compound 0.1 µM
[33] = second compound 10 µM, first compound 0.316 µM
[34] = second compound 10 µM, first compound 1 µM
[35] = second compound 10 µM, first compound 3.16 µM
[36] = second compound 10 µM, first compound 10 µM
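Also: spheroids exposed to compounds for seven days before reading.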
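For viability, T/C in this document: percent viability relative to DMSO vehicle control taken as 100%.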

CCCS(=O)(=O)Nc1ccc(F)c(C(=O)c2c[nH]c3ncc(-c4ccc(Cl)cc4)cc23)c1F + Cc1[nH]c2ccc(F)cc2c1-c1nc2c3cccnc3c3ncccc3c2[nH]1
IC50 (second compound 0.0316 µM): 559 nM | IC50 (second compound 0.1 µM): 1020 nM | IC50 (second compound 0.316 µM): 1100 nM | IC50 (second compound 1 µM): 591 nM | IC50 (second compound 3.16 µM): 293 nM | IC50 (second compound 10 µM): 139 nM | viability, T/C [1]: 114% | viability, T/C [2]: 93.4% | viability, T/C [3]: 61.5% | viability, T/C [4]: 37.4% | viability, T/C [5]: 34.5% | viability, T/C [6]: 36.7% | viability, T/C [7]: 110% | viability, T/C [8]: 88.5% | viability, T/C [9]: 61.4% | viability, T/C [10]: 52.4% | viability, T/C [11]: 40.6% | viability, T/C [12]: 32.3% | viability, T/C [13]: 134% | viability, T/C [14]: 95.6% | viability, T/C [15]: 75.6% | viability, T/C [16]: 43.8% | viability, T/C [17]: 43.4% | viability, T/C [18]: 29% | viability, T/C [19]: 85.2% | viability, T/C [20]: 90.3% | viability, T/C [21]: 63.1% | viability, T/C [22]: 41.5% | viability, T/C [23]: 38.1% | viability, T/C [24]: 37% | viability, T/C [25]: 67.3% | viability, T/C [26]: 52.8% | viability, T/C [27]: 53.1% | viability, T/C [28]: 45.2% | viability, T/C [29]: 43% | viability, T/C [30]: 41.9% | viability, T/C [31]: 58.2% | viability, T/C [32]: 50.8% | viability, T/C [33]: 47.5% | viability, T/C [34]: 50.3% | viability, T/C [35]: 43.2% | viability, T/C [36]: 49.9%

COc1cccc2c1C(=O)c1c(O)c3c(c(O)c1C2=O)CC(O)(C(=O)CO)CC3OC1CC(N)C(O)C(C)O1 (stereo unspecified) + Cc1[nH]c2ccc(F)cc2c1-c1nc2c3cccnc3c3ncccc3c2[nH]1
IC50 (second compound 0.0316 µM): 474 nM | IC50 (second compound 0.1 µM): 782 nM | IC50 (second compound 0.316 µM): 639 nM | IC50 (second compound 1 µM): 463 nM | IC50 (second compound 3.16 µM): 349 nM | IC50 (second compound 10 µM): 529 nM | viability, T/C [1]: 108% | viability, T/C [2]: 70.2% | viability, T/C [3]: 63.6% | viability, T/C [4]: 37.3% | viability, T/C [5]: 30% | viability, T/C [6]: 34.7% | viability, T/C [7]: 113% | viability, T/C [8]: 65.6% | viability, T/C [9]: 69.2% | viability, T/C [10]: 53.4% | viability, T/C [11]: 34% | viability, T/C [12]: 35% | viability, T/C [13]: 92% | viability, T/C [14]: 67.9% | viability, T/C [15]: 54% | viability, T/C [16]: 55.5% | viability, T/C [17]: 31.7% | viability, T/C [18]: 35.9% | viability, T/C [19]: 93.9% | viability, T/C [20]: 65.7% | viability, T/C [21]: 54.5% | viability, T/C [22]: 46.3% | viability, T/C [23]: 37.2% | viability, T/C [24]: 36.1% | viability, T/C [25]: 73.4% | viability, T/C [26]: 65.6% | viability, T/C [27]: 48.1% | viability, T/C [28]: 45.8% | viability, T/C [29]: 31.6% | viability, T/C [30]: 37.8% | viability, T/C [31]: 77.7% | viability, T/C [32]: 64.9% | viability, T/C [33]: 52.5% | viability, T/C [34]: 48% | viability, T/C [35]: 34.3% | viability, T/C [36]: 30.4%

O=C(c1cc(Cc2n[nH]c(=O)c3ccccc23)ccc1F)N1CCN(C(=O)C2CC2)CC1 + Cc1[nH]c2ccc(F)cc2c1-c1nc2c3cccnc3c3ncccc3c2[nH]1
IC50 (second compound 0.0316 µM): > 10000 nM | IC50 (second compound 0.1 µM): > 10000 nM | IC50 (second compound 0.316 µM): > 10000 nM | IC50 (second compound 1 µM): > 10000 nM | IC50 (second compound 3.16 µM): > 10000 nM | IC50 (second compound 10 µM): > 10000 nM | viability, T/C [1]: 99% | viability, T/C [2]: 87.9% | viability, T/C [3]: 91% | viability, T/C [4]: 77% | viability, T/C [5]: 83.1% | viability, T/C [6]: 65.6% | viability, T/C [7]: 102% | viability, T/C [8]: 85.1% | viability, T/C [9]: 86% | viability, T/C [10]: 89.2% | viability, T/C [11]: 93% | viability, T/C [12]: 81.4% | viability, T/C [13]: 104% | viability, T/C [14]: 83.9% | viability, T/C [15]: 90.6% | viability, T/C [16]: 72.8% | viability, T/C [17]: 87.4% | viability, T/C [18]: 79.7% | viability, T/C [19]: 89.9% | viability, T/C [20]: 100% | viability, T/C [21]: 89.2% | viability, T/C [22]: 88.7% | viability, T/C [23]: 94.7% | viability, T/C [24]: 83.6% | viability, T/C [25]: 79.4% | viability, T/C [26]: 83.5% | viability, T/C [27]: 75.4% | viability, T/C [28]: 100% | viability, T/C [29]: 81.7% | viability, T/C [30]: 79.6% | viability, T/C [31]: 66.6% | viability, T/C [32]: 70.8% | viability, T/C [33]: 81.2% | viability, T/C [34]: 64.2% | viability, T/C [35]: 85.9% | viability, T/C [36]: 77.7%
